Data reported in PMC6261253 (Nature, 2018).

T1: DHX36-AAA (Bos taurus, UniProt Q05B79, K192A/K193A/K194A)
T1 sequence (Q05B79 55-1010 K192A/K193A/K194A): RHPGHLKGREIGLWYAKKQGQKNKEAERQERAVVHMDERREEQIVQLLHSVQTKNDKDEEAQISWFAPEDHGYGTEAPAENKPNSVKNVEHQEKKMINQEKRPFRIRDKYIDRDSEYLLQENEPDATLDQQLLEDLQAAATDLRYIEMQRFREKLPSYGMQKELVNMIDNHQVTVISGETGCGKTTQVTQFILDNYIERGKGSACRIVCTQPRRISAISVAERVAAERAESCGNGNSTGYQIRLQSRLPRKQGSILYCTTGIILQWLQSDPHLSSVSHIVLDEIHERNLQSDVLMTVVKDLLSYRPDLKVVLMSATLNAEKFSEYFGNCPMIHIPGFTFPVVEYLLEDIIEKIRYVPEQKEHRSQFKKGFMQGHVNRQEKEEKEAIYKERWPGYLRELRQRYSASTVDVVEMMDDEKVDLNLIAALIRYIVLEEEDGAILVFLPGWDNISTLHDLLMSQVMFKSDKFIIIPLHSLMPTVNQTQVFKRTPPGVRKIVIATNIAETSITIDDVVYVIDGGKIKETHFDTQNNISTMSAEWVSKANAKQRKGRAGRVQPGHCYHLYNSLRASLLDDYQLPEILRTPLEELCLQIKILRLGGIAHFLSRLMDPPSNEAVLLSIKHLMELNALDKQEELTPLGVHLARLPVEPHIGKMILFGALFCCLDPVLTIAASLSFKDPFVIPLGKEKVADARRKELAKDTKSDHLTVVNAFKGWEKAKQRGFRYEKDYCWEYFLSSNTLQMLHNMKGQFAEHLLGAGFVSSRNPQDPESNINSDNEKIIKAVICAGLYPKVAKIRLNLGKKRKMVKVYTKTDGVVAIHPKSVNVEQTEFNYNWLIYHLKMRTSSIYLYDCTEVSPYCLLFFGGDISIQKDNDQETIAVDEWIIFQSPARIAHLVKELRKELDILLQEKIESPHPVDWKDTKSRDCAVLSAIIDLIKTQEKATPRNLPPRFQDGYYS

T2: DHX36-DSM (crystallization construct) (Bos taurus, UniProt Q05B79 55-1010, E435Y;E436Y;K437Y;K752A;D753A;K755A;del1-54;del111-159)
T2 sequence: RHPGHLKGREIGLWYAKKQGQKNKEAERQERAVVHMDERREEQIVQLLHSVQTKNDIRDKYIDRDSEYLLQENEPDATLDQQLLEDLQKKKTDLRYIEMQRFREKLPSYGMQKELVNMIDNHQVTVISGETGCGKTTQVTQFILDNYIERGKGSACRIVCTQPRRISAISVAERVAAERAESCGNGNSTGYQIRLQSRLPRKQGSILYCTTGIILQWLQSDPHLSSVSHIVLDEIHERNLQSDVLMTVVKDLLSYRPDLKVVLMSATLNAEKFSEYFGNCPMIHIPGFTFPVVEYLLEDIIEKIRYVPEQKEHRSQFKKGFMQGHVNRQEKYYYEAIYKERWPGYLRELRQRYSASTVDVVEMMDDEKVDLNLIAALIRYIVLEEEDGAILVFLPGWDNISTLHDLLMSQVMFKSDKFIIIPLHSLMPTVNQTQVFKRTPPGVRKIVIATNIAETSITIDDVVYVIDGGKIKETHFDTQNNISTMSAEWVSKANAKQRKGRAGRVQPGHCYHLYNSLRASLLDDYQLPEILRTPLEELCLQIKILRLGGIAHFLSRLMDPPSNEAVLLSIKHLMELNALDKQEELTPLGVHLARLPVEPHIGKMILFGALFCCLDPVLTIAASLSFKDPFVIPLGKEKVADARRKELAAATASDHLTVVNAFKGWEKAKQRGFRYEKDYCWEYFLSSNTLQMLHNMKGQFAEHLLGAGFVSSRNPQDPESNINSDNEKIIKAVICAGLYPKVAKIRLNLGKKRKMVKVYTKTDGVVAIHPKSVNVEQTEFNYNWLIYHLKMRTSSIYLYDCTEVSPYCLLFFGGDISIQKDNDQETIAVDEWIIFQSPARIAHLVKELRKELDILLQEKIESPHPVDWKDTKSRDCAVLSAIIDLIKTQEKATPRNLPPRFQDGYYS


Tests used:
[1] = biological target: T1, DHX36-AAA; experiment: single-molecule FRET, helicase dissociation from G-quadruplex DNA; type: biochemical; conditions: ATP added to DHX36-AAA bound to c-Myc G-quadruplex DNA with 3' T9 tail
[2] = biological target: T2, DHX36-DSM (crystallization construct); experiment: X-ray crystallography

Molecule	single-molecule FRET, helicase dissociation from G-quadruplex DNA [1]	binding result [2]
Nc1ncnc2c1ncn2[C@@H]1O[C@H](COP(=O)(O)OP(=O)(O)OP(=O)(O)O)[C@@H](O)[C@H]1O [ATP]	Addition of ATP (red arrow) while DHX36-AAA is displaying repetitive unfolding activity	–
AGGGTGGGTAGGGTGGGTTTTTTT (structured_DNA) [DNAMyc]	–	binds
